Measured values from patent US6846678B2, “Gamma sterilized buffer solutions for pH measurement” (Terumo Cardiovascular Systems, Co.-Tustin, priority 2002, dated 2005).

Tests used:
[1] = Effect of gamma sterilization (25-35 kGy) on preservatives in buffer; assay type: physicochemical; settings: for Result post-gamma sterilization: gamma sterilization 25-35 kGy
Method: In a preferred embodiment, sterilization is performed by use of a gamma irradiation system having a Cobalt-60 source. The system used in the examples and data presented below is a dual source (i.e. two source racks), affording continuous irradiation and wet storage. The sterilization range was 25-35 kGy, set by adjusting the time of exposure to a constant radiation source. All sterilization dose ranges were confirmed by dosimeters.
Cf. Table 3. We examined a variety of preservatives for use in this buffer.

six different organisms = settings: over eight weeks, unsterile buffer
Source text: We tested the Buffers according to USP protocol for “Antimicrobial Preservatives Effectiveness” (United States Pharmacopeia, Volume XXIV, Microbiological Tests, Section (51) Antimicrobial Effectiveness Testing, pp. 1809-11, Official Jan. 1, 2000).

Compound	Result post-gamma sterilization [1]	effect on the final buffer formulation with regard to pH level, stability, and cosmetic factors ([1]; gamma sterilization cycle)	counts for five of the organisms (six different organisms)	log reduction for the sixth organism (six different organisms)
Benzalkonium chloride	Precipitated			
CCCOC(=O)c1ccc(O)cc1 [Propyl paraben]	Precipitated			
N=C(NCCCCCCNC(=N)NC(=N)Nc1ccc(Cl)cc1)NC(=N)Nc1ccc(Cl)cc1 [Chlorohexidine]	Precipitated			
CC(C)(C)CC(C)(C)c1ccc(OCCOCC[N+](C)(C)Cc2ccccc2)cc1 [Benzethonium chloride]	Acceptable	minimal effect	no counts	> 3 log
COC(=O)c1ccc(O)cc1 [Methyl paraben]	Acidified			
Cl/C=C\C[N+]12CN3CN(CN(C3)C1)C2.[Cl-] [Dowicil 200]	Acidified, drifted			
O=C1C(N(CO)C(=O)NCO)N(CO)C(=O)N1CO (stereo not shown) [Germall II]	Strong acidification, evolved CO2			
